According to US20240174690A1, “ANNULATED 2-AMINO-3-CYANO THIOPHENES AND DERIVATIVES FOR THE TREATMENT OF CANCER” (BOEHRINGER INGELHEIM INTERNATIONAL GMBH, priority 2021, published 2024):

Tests used:
[1] = system: GP2D cells; experiment: GP2D proliferation assay (120 h) (colorectal cancer, G12D); format: cell-based
Protocol: GP2D Proliferation Assay (120 h) (Colorectal Cancer, G12D)
GP2D cells (ATCC No. CRL-5807) are dispensed into white 384-well plates, flat and white bottom (Perkin Elmer, 6007680) at a density of 500 cells per well in 40 μl DMEM (Sigma, D6429)+1×GlutaMAX (Gibco, 35050038)+10% FCS (fetal calf serum). […] Compounds (10 mM stock in DMSO) are added at logarithmic dose series using the HP Digital Dispenser D300 (Tecan), including DMSO controls and normalizing for added DMSO. For the TO time point measurement, untreated cells are analyzed at the time of compound addition. Plates are incubated for 120 h, and cell viability is measured using CellTiter-Glo luminescent cell viability reagent (Promega product code G7570). Viability (stated as percent of control) is defined as relative luminescence units RLU of each well divided by the RLU of cells in DMSO controls. IC50 values are determined from viability measurements by non-linear regression using a four parameter model.

[2] = biological target: KRAS (G13D)::SOS1 (Homo sapiens (Human), UniProt P01116, C118S/G13D); experiment: KRAS::SOS1 AlphaScreen binding assay, KRAS G13D
Chain of KRAS (G13D)::SOS1 (P01116 other isoform, or with tags, fused parts or gaps G13D/C118S): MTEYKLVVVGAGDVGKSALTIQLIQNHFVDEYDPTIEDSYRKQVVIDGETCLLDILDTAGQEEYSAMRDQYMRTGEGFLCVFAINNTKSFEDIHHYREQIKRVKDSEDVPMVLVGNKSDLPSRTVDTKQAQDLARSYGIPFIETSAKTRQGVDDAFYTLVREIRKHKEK
From the text: This assay can be used to examine the potency with which compounds according to the invention binding to (mutated) KRAS inhibit the protein-protein interaction between SOS1 and (mutated) KRAS e.g., KRAS WT, KRAS G12C, KRAS G12D, KRAS G12V, KRAS G13D. […] Low IC50 values in this assay setting are indicative of strong inhibition of protein-protein interaction between SOS1 and KRAS:
These assays measure the inhibitory effect of compounds on KRAS mutant protein-protein interactions using the Alpha Screen technology by Perkin Elmer.
The following (mutant) enzyme forms of KRAS and interacting proteins are used in these assays at the given concentrations: • KRAS (G12D) 1-169, N-terminal 6His-tag, C-terminal avi-tag (Xtal BioStructures, Inc.); final assay concentration 10 nM and SOS1 564-1049, N-terminal 229 GST-tag, TEV cleavage site (Viva Biotech Ltd); final assay concentration 5 nM; • KRAS (G12C) 1-169, N-terminal 6His-tag for purification, cleaved off, C-terminal avi-tag, biotinylated, mutations: C51S, C80L, C118S (in house); final assay concentration 7.5 nM and SOS1 564-1049, N-terminal 229 GST-tag, TEV cleavage site (Viva Biotech Ltd); final assay concentration 5 nM; • KRAS (G12V) 1-169, N-terminal 6His-tag for purification, cleaved off, C-terminal avi-tag, biotinylated, TEV cleavage site, mutation: C118S, GDP loaded (in house); final assay concentration 10 nM and SOS1 564-1049, N-terminal 229 GST-tag, TEV cleavage site (Viva Biotech Ltd); final assay concentration 10 nM; • KRAS (G13D) 1-169, N-terminal 6His-tag for purification, cleaved off, C-terminal avi-tag, biotinylated, TEV cleavage site, mutation: C118S, GDP loaded (in house); final assay concentration 10 nM and SOS1 564-1049, N-terminal 229 GST-tag, TEV cleavage site (Viva Biotech Ltd); final assay concentration 10 nM; • KRAS (WT) 1-169, N-terminal 6His-tag for purification, cleaved off, C-terminal avi-tag, biotinylated, TEV cleavage site, mutation: C118S, GDP loaded (in house); final assay concentration 10 nM and SOS1 564-1049, N-terminal 229 GST-tag, TEV cleavage site (Viva Biotech Ltd); final assay concentration 10 nM.
Test compounds dissolved in DMSO are dispensed onto assay plates (Proxiplate 384 PLUS, white, PerkinElmer; 6008289) using an Access Labcyte Workstation with the Labcyte Echo 55×. For the chosen highest assay concentration of 100 μM, 150 nL of compound solution are transferred from a 10 mM DMSO compound stock solution. A series of eleven fivefold dilutions per compound are transferred to the assay plate, compound dilutions are tested in duplicates. DMSO are added as backfill to a total volume of 150 nL.
The assays run on a fully automated robotic system in a darkened room below 100 Lux. To 150 nl of compound dilution 10 μl of a mix including KRAS mutant protein, SOS1 (final assay concentrations see above) and GDP nucleotide (Sigma G7127; final assay concentration 10 μM) in assay buffer (1×PBS, 0.1% BSA, 0.05% Tween 20) are added into columns 1-24.
After 30 minutes incubation time 5 μl of Alpha Screen bead mix in assay buffer are added into columns 1-23. Bead mix consists of AlphaLISA Glutathione Acceptor Beads (PerkinElmer, Cat No AL109) and AlphaScreen Streptavidin Donor Beads (PerkinElmer Cat No 6760002) in assay buffer at a final assay concentration of 10 μg/ml each.
Plates are kept at room temperature in a darkened incubator. After an additional 60 minutes incubation time the signal is measured in a PerkinElmer Envision HTS Multilabel Reader using the AlphaScreen specs from PerkinElmer.
Each plate contains up to 16 wells of a negative control depending on the dilution procedure (platewise or serial) (DMSO instead of test compound; with KRAS mutant::SOS1 GDP mix and bead mix; column 23) and 16 wells of a positive control (DMSO instead of test compound; with KRAS mutant::SOS1 GDP mix w/o bead mix; column 24).
As internal control known inhibitors of KRAS mutant::SOS1 interaction can be measured on each compound plate. […]

[3] = system: A375 cells; experiment: A375 CTG proliferation assay (120 h) (melanoma, wt, B-Raf mutant, negative control); format: cell-based; conditions: Homo sapiens, A-375, CTG 120 h
Protocol: A375 CTG Proliferation Assay (120 h) (Melanoma, Wt, B-Raf Mutant, Negative Control)
A375 cells (ATCC CRL-1619) are dispensed into 384-well plates, flat and clear bottom (Greiner, PNr. 781091) at a density of 300 cells per well in 60 μL DMEM (Sigma 06429)+10% Fetal Calf Serum (HyClone, PNr.: SH30084.03) and incubated at 37° C. in a CO2 incubator overnight. The next day, compounds (10 mM stock in DMSO) are added at logarithmic dose series using the HP Digital Dispenser D300 (Tecan), including DMSO controls. Plates are incubated for 120 h, and cell viability is measured using CellTiter-Glo luminescent cell viability reagent (Promega product code G7570). Viability (stated as percent of control) is defined as relative luminescence units RLU of each well divided by the RLU of cells in DMSO controls. IC50 values are determined from viability measurements by non-linear regression using a four-parameter model.

SMILES	IC50 [1]	IC50 [2]	IC50 [3]
C[C@H](Oc1cc(N2CCNC3(CC3)C2)nc(-c2onc3c2CCC[C@@]32CCCc3sc(N)c(C#N)c32)n1)[C@@H]1CCCN1C [I-5]	0.001 µM	–	–
C[C@H](Oc1cc(N2C[C@H](C)NC3(CC3)C2)nc(-c2onc3c2CCC[C@@]32CCCc3sc(N)c(C#N)c32)n1)[C@@H]1CCCN1C [I-8]	0.006 µM	–	–
C[C@H](Oc1cc(N2CC[C@H](N(C)C)C2)nc(-c2noc3c2CCC[C@@]32CCCc3sc(N)c(C#N)c32)n1)[C@@H]1CCCN1C [II-49]	0.006 µM	0.173 µM	–
C[C@H](Oc1cc(N2CCNC[C@]23CCOC3)nc(-c2noc3c2CCC[C@@]32CCCc3sc(N)c(C#N)c32)n1)[C@@H]1CCCN1C [II-50]	0.003 µM	–	–
C[C@H](Oc1cc(-n2cc3c(n2)CCNC3)nc(-c2noc3c2CCC[C@@]32CCCc3sc(N)c(C#N)c32)n1)[C@@H]1CCCN1C [II-53]	0.029 µM	–	–
C[C@H](Oc1cc(N2CCNC3(CC3)C2)nc(-c2noc3c2CCC[C@@]32CCCc3sc(N)c(C#N)c32)n1)[C@@H]1CCCN1C [II-54]	0.001 µM	0.033 µM	–
C[C@H](Oc1cc(N2CCN(C)CC2)nc(-c2noc3c2CCC[C@@]32CCCc3sc(N)c(C#N)c32)n1)[C@@H]1CCCN1C [II-55]	0.046 µM	0.047 µM	–
C[C@H](Oc1cc(N2C[C@H](C)N[C@@H](C)C2)nc(-c2noc3c2CCC[C@@]32CCCc3sc(N)c(C#N)c32)n1)[C@@H]1CCCN1C [II-56]	0.013 µM	–	–
C[C@H](Oc1cc(N2CCC[C@H](O)C2)nc(-c2noc3c2CCC[C@@]32CCCc3sc(N)c(C#N)c32)n1)[C@@H]1CCCN1C [II-57]	0.164 µM	–	–
C[C@H](Oc1cc(N2CCNC2=O)nc(-c2noc3c2CCC[C@@]32CCCc3sc(N)c(C#N)c32)n1)[C@@H]1CCCN1C [II-64]	0.022 µM	–	2.58 µM
C[C@H](Oc1cc(-n2ccnc2)nc(-c2noc3c2CCC[C@@]32CCCc3sc(N)c(C#N)c32)n1)[C@@H]1CCCN1C [II-69]	0.585 µM	–	–
C[C@H](Oc1cc(-n2cncn2)nc(-c2noc3c2CCC[C@@]32CCCc3sc(N)c(C#N)c32)n1)[C@@H]1CCCN1C [II-70]	–	0.019 µM	–
C[C@H](Oc1cc(N2CCCC3(COC3)C2)nc(-c2noc3c2CCC[C@@]32CCCc3sc(N)c(C#N)c32)n1)[C@@H]1CCCN1C [II-72]	–	0.009 µM	–
C[C@H](Oc1cc(N2CCN(C)C2=O)nc(-c2noc3c2CCC[C@@]32CCCc3sc(N)c(C#N)c32)n1)[C@@H]1CCCN1C [II-75]	0.111 µM	–	2.54 µM
C[C@H](Oc1cc(C2CCOCC2)nc(-c2noc3c2CCC[C@@]32CCCc3sc(N)c(C#N)c32)n1)[C@@H]1CCCN1C [II-76]	–	0.041 µM	–
C[C@H](Oc1cc(N2CCOC3(COC3)C2)nc(-c2noc3c2CCC[C@@]32CCCc3sc(N)c(C#N)c32)n1)[C@@H]1CCCN1C [II-77]	0.037 µM	0.008 µM	> 3 µM
C[C@H](Oc1cc(-c2cnn(C)n2)nc(-c2noc3c2CCC[C@@]32CCCc3sc(N)c(C#N)c32)n1)[C@@H]1CCCN1C [II-86]	0.824 µM	–	–
CO[C@@H]1C[C@@H]([C@H](C)Oc2cc(-c3ccn(C)n3)nc(-c3noc4c3CCC[C@@]43CCCc4sc(N)c(C#N)c43)n2)N(C)C1 [II-91]	0.394 µM	–	1.14 µM
C[C@H](Oc1cc([C@@H]2CCOC2)nc(-c2noc3c2CCC[C@@]32CCCc3sc(N)c(C#N)c32)n1)[C@@H]1CCCN1C [II-94]	0.026 µM	0.009 µM	> 3 µM
C[C@H](Oc1cc(-c2ccn(C)n2)nc(-c2noc3c2CCC[C@@]32CCCc3sc(N)c(C#N)c32)n1)[C@@H]1CCCN1C [II-96]	0.809 µM	–	–
C[C@H](Oc1cc(-c2ccn3ncnc3c2)nc(-c2noc3c2CCC[C@@]32CCCc3sc(N)c(C#N)c32)n1)[C@@H]1CCCN1C [II-104]	0.51 µM	–	–
C[C@H](Oc1cc(-n2cncc3ccnc2-3)nc(-c2noc3c2CCC[C@@]32CCCc3sc(N)c(C#N)c32)n1)[C@@H]1CCCN1C [II-105]	0.463 µM	–	–
C[C@H](Oc1cc(-c2cnsc2)nc(-c2noc3c2CCC[C@@]32CCCc3sc(N)c(C#N)c32)n1)[C@@H]1CCCN1C [II-111]	0.443 µM	–	–
C[C@H](O)Cn1ccc(-c2cc(O[C@@H](C)[C@@H]3CCCN3C)nc(-c3noc4c3CCC[C@@]43CCCc4sc(N)c(C#N)c43)n2)n1 [II-112]	0.248 µM	–	–
C[C@H](Oc1cc(-n2ccncc2=O)nc(-c2noc3c2CCC[C@@]32CCCc3sc(N)c(C#N)c32)n1)[C@@H]1CCCN1C [II-116]	–	0.017 µM	–
C[C@H](Oc1cc(-c2ccn(C[C@@H](C)O)n2)nc(-c2noc3c2CCC[C@@]32CCCc3sc(N)c(C#N)c32)n1)[C@@H]1CCCN1C [II-117]	0.276 µM	–	–
CNC(=O)c1cn(-c2cc(O[C@@H](C)[C@@H]3CCCN3C)nc(-c3noc4c3CCC[C@@]43CCCc4sc(N)c(C#N)c43)n2)nn1 [II-122]	–	–	0.761 µM
C[C@H](Oc1cc(-n2cc(-c3cccnc3)nn2)nc(-c2noc3c2CCC[C@@]32CCCc3sc(N)c(C#N)c32)n1)[C@@H]1CCCN1C [II-123]	–	–	0.259 µM
